# “Also recorded” adds a separate entry of the source. Bridges are numbered along the chain shown (N, C = ends). Where no end group is shown, it is not given here.
# Legend:
# [1] = system: classical pathway C5b deposition (complement C5); test: Classical pathway C5b deposition ELISA; assay type: biochemical, human; conditions: n=3 (K8: n=6), ND* = Not detected
# Excerpt: (§1) Figure 1. Functional modulation of C5 via knob domain peptides. […] Following activation of C1q via antibody Fc, C4 and C2 are cleaved and form C4bC2a (the CP C3 convertase) which cleaves C3 into C3a (not shown) and C3b. At high C3b concentrations, C4bC2aC3b (the CP […]) forms and cleaves C5 into C5a and C5b. C5b associates with C6 and forms the membrane attack complex (MAC) with C7, C8, and multiple copies of C9. […] In the presence of factor B and factor D, C3bBb (the AP C3 convertase) generates additional C3b, prompting formation of C3bBbC3b (the AP C5 convertase), which cleaves C5 into C5a and C5b, driving MAC formation. CP-driven ELISAs (C) and AP-driven ELISAs (D) are shown. For both pathways, the inhibition of C3d (the surface-associated domain of C3b, which is upstream of C5 inhibition), C5a release, and C5b neo-epitope formation and C9 deposition were tracked within the MAC. […] For the AP assays, 5% serum (v/v) gives a putative C5 concentration of 20 nM. For the CP assays, 1% serum (v/v) gives a putative C5 concentration of 4 nM, based on a reported C5 serum concentration of 397 nM/75 µg/mL ([Sjöholm, 1975]).
# (§2) For the C5b ELISA, assays were run using the CP and AP Complement functional ELISA kits (Svar Life Science, Malmö, Sweden). For sample preparation, serum was diluted as per the respective protocol for the CP and AP assays. […]
# [2] = system: alternative pathway C5b deposition (complement C5); test: Alternative pathway C5b deposition ELISA; assay type: biochemical, human; conditions: n=3 (K8: n=5; K92: n=4), ND* = Not detected
# Excerpt: as §1, §2
# [3] = system: alternative pathway mediated C9 deposition; test: Inhibition of alternative pathway mediated C9 deposition (ELISA); assay type: biochemical, human; conditions: 5% serum, n=3, ND* = Not detected
# Procedure: For the C3 and C9 ELISAs, microtiter plates (MaxiSorp; Nunc) were incubated overnight at 4°C with 50 µL of a solution of in 75 mM sodium carbonate (pH 9.6) containing either 2.5 µg/mL aggregated human IgG (Sigma-Aldrich, Gillingham, UK) for CP or 20 µg/mL zymosan (Sigma-Aldrich, Gillingham, UK) for AP. As a negative control, wells were coated with 1% (w/v) bovine serum albumin (BSA)/PBS. Microtiter plates were washed four times with 250 µL of wash buffer (50 mM Tris-HCl), 150 mM NaCl and 0.1% Tween 20 (pH 8) between each step of the procedure. Wells were blocked using 250 µL of 1% (w/v) BSA/PBS for 2 hr at room temperature. […] Complement activation was assessed through detection of deposited complement activation factors using specific antibodies against C3b (rat anti-human C3d HM2198, Hycult, Uden, The Netherlands) and C9 (goat anti-human C9, A226, Complement Technologies Tyler, TX) at a 1:1000 dilution. Bound primary antibodies were detected with […]-conjugated goat anti-rat (ab97057, Abcam, Cambridge, UK) or rabbit anti-goat (P0449, Agilent Dako, Santa Clara, CA) secondary antibodies at a 1:1000 dilution. Bound HRP-conjugated antibodies were detected using TMB One solution (Eco-TEK – manufactured by Bio-TEK, Winooski, VT) with absorbance measured at 450 nm. […]
# human C5 = biological target: T1, human C5 (Homo sapiens, UniProt P01031); test: SPR cross blocking; assay type: binding; conditions: HBS-EP, qualitative
# T1 construct: tissue TCS Biosciences (serum); host or cells: human serum
# Procedure: To test for cross blocking, arising from overlapping epitopes, or cooperativity between knob domains, we performed a surface plasmon resonance (SPR) cross blocking experiment, where, using a Biacore 8K, we saturated a C5-coated sensor chip with two 20 µM injections of knob domain peptide before injecting a different peptide at 20 µM to assess its capacity to bind. This provides a qualitative measure of cross blocking, whereby an increase in response units (RUs) indicates ternary complex formation, stoichiometries, or kinetics cannot be reliably derived with concurrent dissociation of both peptides (Figure 2).
# On a Biacore 8K (GE Healthcare, Amersham, UK), human C5 was amine coupled to a CM5 chip using the same protocol as for C5b. A final immobilisation level of approximately 1000–2000 RUs was obtained. For cross blocking, the surface was saturated with two sequential injections of a 20 µM knob domain solution in HBS-EP buffer (GE Healthcare, Amersham, UK) using a flow rate of 30 µL/min and contact time of 300 s. This was immediately followed with an injection of a second knob domain peptide, again at 20 µM in HBS-EP, with a flow rate of 30 µL/min and a contact time of 270 s, and the dissociation phase was measured for 600 s. […]
# T1 sequence (P01031 678-1676 limits assumed): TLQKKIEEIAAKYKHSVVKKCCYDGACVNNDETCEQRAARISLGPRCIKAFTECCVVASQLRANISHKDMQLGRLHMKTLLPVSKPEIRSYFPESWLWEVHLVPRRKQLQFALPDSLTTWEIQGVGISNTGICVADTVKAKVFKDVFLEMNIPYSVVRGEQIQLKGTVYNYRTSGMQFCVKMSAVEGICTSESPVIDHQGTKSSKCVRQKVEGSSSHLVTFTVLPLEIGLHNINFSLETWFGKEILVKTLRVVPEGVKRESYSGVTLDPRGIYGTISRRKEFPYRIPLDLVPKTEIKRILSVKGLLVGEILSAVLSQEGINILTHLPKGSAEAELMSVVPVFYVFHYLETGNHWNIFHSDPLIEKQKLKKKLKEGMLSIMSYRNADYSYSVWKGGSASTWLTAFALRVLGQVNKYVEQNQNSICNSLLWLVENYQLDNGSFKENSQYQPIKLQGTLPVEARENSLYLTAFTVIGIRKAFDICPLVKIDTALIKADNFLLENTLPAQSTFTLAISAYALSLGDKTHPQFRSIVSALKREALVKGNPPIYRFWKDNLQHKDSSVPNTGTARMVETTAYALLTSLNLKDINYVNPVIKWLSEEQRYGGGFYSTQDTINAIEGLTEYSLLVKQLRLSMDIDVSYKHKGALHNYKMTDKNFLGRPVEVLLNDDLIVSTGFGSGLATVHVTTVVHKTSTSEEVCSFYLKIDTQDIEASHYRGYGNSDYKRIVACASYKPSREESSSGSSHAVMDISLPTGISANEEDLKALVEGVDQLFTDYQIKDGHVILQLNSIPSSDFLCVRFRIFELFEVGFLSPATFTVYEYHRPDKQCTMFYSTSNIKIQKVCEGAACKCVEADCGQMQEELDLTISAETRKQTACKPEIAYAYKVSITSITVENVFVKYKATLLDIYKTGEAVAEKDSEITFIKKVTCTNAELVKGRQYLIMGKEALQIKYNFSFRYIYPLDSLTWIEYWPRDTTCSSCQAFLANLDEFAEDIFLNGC
# T1 sequence (P01031 19-673 limits assumed): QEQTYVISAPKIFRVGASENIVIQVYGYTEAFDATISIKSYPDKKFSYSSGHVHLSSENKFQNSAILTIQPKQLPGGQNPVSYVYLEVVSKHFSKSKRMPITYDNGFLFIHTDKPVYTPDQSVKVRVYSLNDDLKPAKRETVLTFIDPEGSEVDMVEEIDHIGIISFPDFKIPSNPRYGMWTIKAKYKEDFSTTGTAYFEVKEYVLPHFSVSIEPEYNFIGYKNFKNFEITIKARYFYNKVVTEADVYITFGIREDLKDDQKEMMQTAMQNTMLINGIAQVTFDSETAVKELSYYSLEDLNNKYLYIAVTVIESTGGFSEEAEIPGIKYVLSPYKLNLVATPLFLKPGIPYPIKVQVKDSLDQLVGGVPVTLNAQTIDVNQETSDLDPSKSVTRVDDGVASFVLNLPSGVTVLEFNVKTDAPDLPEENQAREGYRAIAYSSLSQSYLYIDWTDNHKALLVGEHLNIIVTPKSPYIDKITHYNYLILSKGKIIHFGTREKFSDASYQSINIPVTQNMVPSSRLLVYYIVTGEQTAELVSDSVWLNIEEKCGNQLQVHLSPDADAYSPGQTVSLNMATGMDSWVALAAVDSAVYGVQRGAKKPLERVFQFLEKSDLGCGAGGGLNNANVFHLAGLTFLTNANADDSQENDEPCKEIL
sequence,measurement,setting,value
"SVCPDGFDWGYGCAAGSSRFCTRHDWCCYDERADSHTYGFCTGNRVENLYFQ (disulfide 3-28, 13-21, 27-41) [K8]",Average Emax,"[1]; CP C5b ELISA, preincubated 15 min RT",68.2%
same,IC50,"[1]; CP functional ELISA kit (Svar), peptide preincubated with human serum 15 min RT, CP 1% serum, putative 4 nM C5, read-out: Geomean IC50",9.3 nM
same,Average Emax,"[2]; AP C5b ELISA, preincubated 15 min RT",91.8%
same,IC50,"[2]; AP functional ELISA kit (Svar), peptide preincubated with human serum 15 min RT, AP 5% serum, putative 20 nM C5, read-out: Geomean IC50",29.2 nM
same,Average Emax,[3]; AP C9 deposition,73.3%
same,IC50,"[3]; AP, Mg-EGTA pH 7.3, zymosan plate, preincubated on ice 30 min, 60 min 37°C, read-out: Geomean IC50",232 nM
same,binding to C5 saturated with K57,"human C5; two 20 µM injections of K57, then 20 µM second peptide","can bind, albeit at a lower level; also recorded: could still partially bind"
same,binding to C5 saturated with K92,"human C5; two 20 µM injections of K92, then 20 µM second peptide","can bind, albeit at a lower level; also recorded: still able to bind, albeit to a lesser degree"
